Measured values taken from article PMC3863987 (Journal of medicinal chemistry, 2012).

T1: recombinant P. vivax NMT (Plasmodium vivax, UniProt A5K1A2)
T1 sequence (A5K1A2 1-410): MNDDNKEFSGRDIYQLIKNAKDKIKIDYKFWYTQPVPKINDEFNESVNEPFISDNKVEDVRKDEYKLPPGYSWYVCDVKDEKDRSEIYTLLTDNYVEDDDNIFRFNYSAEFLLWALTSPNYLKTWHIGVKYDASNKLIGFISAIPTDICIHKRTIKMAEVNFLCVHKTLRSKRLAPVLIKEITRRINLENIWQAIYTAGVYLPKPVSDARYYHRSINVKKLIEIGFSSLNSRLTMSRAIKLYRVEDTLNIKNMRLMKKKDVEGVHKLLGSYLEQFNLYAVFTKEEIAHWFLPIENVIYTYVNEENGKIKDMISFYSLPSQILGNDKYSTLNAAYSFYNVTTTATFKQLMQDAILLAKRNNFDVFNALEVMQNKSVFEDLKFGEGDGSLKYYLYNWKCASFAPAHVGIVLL

B1: recombinant P. vivax NMT (Plasmodium vivax Sal-1) (protein)
chain: T1 sequence (A5K1A2 1-410)

Experiments:
recombinant P. vivax NMT = target: T1, recombinant P. vivax NMT; assay: Fluorogenic NMT enzyme assay, P. vivax NMT; type: biochemical
Solubility = type: physicochemical; settings: ethyl ester in position 3 in place of the aliphatic chain
[1] = substrate: C[C@H](NC(=O)[C@H](CC(=O)O)NC(=O)[C@H](CCCCN)NC(=O)[C@@H]1CCCN1C(=O)[C@H](CCCCN)NC(=O)[C@H](CO)NC(=O)[C@H](CCCCN)NC(=O)[C@H](CC(N)=O)NC(=O)[C@H](CO)NC(=O)CN)C(=O)N[C@@H](CO)C(=O)N[C@@H](CCC(N)=O)C(=O)N[C@@H](CCCNC(=N)N)C(=O)N[C@@H](CCCNC(=N)N)C(=O)N[C@@H](CCCNC(=N)N)C(N)=O; assay: Fluorogenic NMT enzyme assay, P. vivax NMT; type: biochemical, Plasmodium vivax; settings: other: peptide substrate for the PvNMT assay, in assay conditions

Molecule	inhibitory activity against PvNMT (in words) (recombinant P. vivax NMT)	further results
CCCCc1c(C)nc2ccc(OC)cc2c1SCCC#N.Cl [Compound 1, 3-butyl-4-((2-cyanoethyl)thio)-6-methoxy-2-methyl-quinoline]	micromolar IC50	
CCOC(=O)c1cnc2ccc(OC)cc2c1SCCC#N [Compound 7]		solubility (in words) (Solubility): greatly improved solubility
CCOC(=O)c1c(C)nc2ccccc2c1NCC#N.Cl [Compound 17]	complete loss of activity	
B1		Km [1]: 5.71 ± 0.6 µM
